# BindingDB's records for doi:10.1110/ps.0229303 (Gsk, 2003)
# Legend:
# Experiment in all cases: PDF Inhibition Assay
# Conditions in all cases: pH 7.6; 25 °C
# Peptide deformylase [1] = biological target: T1, Peptide deformylase (Haemophilus influenzae (strain ATCC 51907 / DSM 11121 / KW20 / Rd), UniProt P44786)
# T1 sequence (P44786 whole entry): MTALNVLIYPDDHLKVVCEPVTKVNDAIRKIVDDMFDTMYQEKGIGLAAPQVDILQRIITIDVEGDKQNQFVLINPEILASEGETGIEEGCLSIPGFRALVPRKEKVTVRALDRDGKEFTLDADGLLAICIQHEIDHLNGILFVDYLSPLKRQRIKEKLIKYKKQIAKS
# Experimental: (§1) Enzyme assay was carried out in 96-well microtiter plates with a SpectraMax plate reader (Molecular Devices Corp.). PDF activity was measured using a continuous enzyme-linked assay. The reaction was triggered with the addition of PDF enzyme, and absorbance was monitored for 15 min at 340 nm. […] A standard curve with NADH concentrations ranging from 0 to 1 mM was performed. The velocities obtained in mOD340 nm per minute were then converted to micromolar NADH produced per second to calculate Vmax. To determine IC50s, PDF activity was measured in the presence of increasing concentrations of the inhibitor in the presence of substrate concentration corresponding to Km values. All data fitting was carried out with nonlinear least squares regression using the commercial software package Graphit.
# Peptide deformylase [2] = biological target: T2, Peptide deformylase (Escherichia coli (strain K12), UniProt P0A6K3)
# T2 sequence (P0A6K3 whole entry): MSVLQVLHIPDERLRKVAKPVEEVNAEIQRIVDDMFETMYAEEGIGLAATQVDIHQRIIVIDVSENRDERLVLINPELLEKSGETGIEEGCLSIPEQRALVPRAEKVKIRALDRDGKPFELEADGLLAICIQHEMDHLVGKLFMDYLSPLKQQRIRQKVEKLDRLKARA
# Experimental: as §1
# Peptide deformylase [3] = biological target: T3, Peptide deformylase (Staphylococcus aureus (strain Mu50 / ATCC 700699), UniProt P68825)
# T3 sequence (P68825 whole entry): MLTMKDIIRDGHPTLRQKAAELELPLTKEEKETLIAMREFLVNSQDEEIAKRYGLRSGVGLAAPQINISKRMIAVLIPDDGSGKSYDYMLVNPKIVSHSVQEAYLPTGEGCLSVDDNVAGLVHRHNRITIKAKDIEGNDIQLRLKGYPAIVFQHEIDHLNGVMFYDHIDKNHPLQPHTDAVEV
# Experimental: as §1
# Peptide deformylase [4] = biological target: T4, Peptide deformylase (Streptococcus pneumoniae (strain ATCC BAA-255 / R6), UniProt Q8DP79)
# T4 sequence (Q8DP79 whole entry): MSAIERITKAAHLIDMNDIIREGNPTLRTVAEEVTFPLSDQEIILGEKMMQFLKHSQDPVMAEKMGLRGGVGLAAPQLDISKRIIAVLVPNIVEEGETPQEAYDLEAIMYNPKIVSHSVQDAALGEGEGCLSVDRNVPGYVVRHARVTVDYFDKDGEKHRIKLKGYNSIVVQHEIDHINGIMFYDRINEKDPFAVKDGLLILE
# Experimental: as §1
Structure (SMILES),IC50 (Peptide deformylase [1]) [µM],IC50 (Peptide deformylase [2]) [µM],IC50 (Peptide deformylase [3]) [µM],IC50 (Peptide deformylase [4]) [µM]
O=CN(O)CCOc1cccc(C(=O)c2ccccc2)c1 [N-[2-(3-benzoylphenoxy)ethyl]-N-hydroxyformamide],0.32,–,–,–
O=CN(O)CCCc1ccccc1 [N-hydroxy-N-(3-phenylpropyl)formamide],0.15,0.16,0.25,0.4
Cc1cccc(CCCN(O)C=O)n1 [N-hydroxy-N-[3-(6-methylpyridin-2-yl)propyl]formamide],1.04,–,–,–
